# Test results: patent US9856511B2, “Protease deubiquitinating inhibitor screening” (priority 2011, dated 2018)
# Tests used:
# [1] = system: FaDu head and neck carcinoma; test: FaDu head and neck carcinoma xenograft in SCID mice; format: in vivo; conditions: plasma
# Method: In order to investigate the effect of b-AP15 on tumor growth in vivo, the compound was administered to mice bearing either a human tumor or mouse xenografts. FaDu head and neck carcinoma were chosen as a SCID mouse xenograft both as a model for a p53mut tumor and since this model is suitable for studies using circulating cell death biomarkers (30). Significant inhibition of FaDu tumor growth was observed following daily treatment with b-AP15 (treated/control tumor volume, T/C=0.4, p=<0.001). Similarly b-AP15 (day on/2 day off schedule) inhibited tumor growth in C57BL/6J mice bearing lung carcinomas (T/C=0.16, p=<0.01). […] To examine whether b-AP15 promotes tumor cell death in vivo, plasma levels of cytokeratin-18 (CK18) were analyzed. […] To investigate the ability of b-AP15 to inhibit proteasome deubiquitination in vivo, accumulation of poly-ubiquitin conjugates was analyzed by means of antibodies specific for K48 linked polyubiquitin chains. Histological analysis of treated tumors confirmed the accumulation of poly-ubiquitin conjugates. […]
# Animal experiments were conducted in full accordance with Swedish governmental statutory regulations on animal welfare under permission from local ethical committees. […] All mice were monitored and weighed daily. […] After injection, tumor growth was measured daily with calipers and the tumor volume calculated by the formula L=W^2=0.44. […]
# USP5 = biological target: T1, USP5 (Homo sapiens, UniProt P45974); test: HA-UbVS competitive labelling, non-proteasomal DUB; format: binding
# T1 sequence (P45974 1-858): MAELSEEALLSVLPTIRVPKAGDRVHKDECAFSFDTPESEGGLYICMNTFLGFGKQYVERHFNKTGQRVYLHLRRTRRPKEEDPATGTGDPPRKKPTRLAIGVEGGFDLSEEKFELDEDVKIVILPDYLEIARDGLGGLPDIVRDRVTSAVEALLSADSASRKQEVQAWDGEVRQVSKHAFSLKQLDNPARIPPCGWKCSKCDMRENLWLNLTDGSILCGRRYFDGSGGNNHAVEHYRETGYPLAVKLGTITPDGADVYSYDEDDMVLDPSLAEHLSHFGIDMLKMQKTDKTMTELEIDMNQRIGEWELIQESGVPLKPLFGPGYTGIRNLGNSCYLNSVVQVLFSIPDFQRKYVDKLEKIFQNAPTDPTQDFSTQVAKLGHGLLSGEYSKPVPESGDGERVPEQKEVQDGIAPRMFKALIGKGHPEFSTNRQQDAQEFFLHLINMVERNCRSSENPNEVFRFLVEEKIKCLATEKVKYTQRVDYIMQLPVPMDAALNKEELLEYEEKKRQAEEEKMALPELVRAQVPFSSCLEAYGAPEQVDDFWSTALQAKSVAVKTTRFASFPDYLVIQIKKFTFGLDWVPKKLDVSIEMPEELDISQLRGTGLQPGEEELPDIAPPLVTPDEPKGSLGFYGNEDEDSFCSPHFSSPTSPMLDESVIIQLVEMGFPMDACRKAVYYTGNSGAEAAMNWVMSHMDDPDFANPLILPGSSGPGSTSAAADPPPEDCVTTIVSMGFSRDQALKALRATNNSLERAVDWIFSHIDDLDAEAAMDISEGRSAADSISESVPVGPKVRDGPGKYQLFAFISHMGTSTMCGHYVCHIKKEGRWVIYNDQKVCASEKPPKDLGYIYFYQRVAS
# Text: The deubiquitinating activity of the proteasome is attributed to the action of three DUBs, UCHL5, USP14 and POH1, all localized within the 19S RP 26-28. Both UCHL5 and USP14 are sensitive to N-ethylmaleimide (NEM), a general inhibitor of cysteine proteases, whereas POH1 is insensitive to inhibition by NEM but sensitive to metal chelators such as N,N,N,N-tetrakis-(2-pyridylmethyl)ethylenediamine (TPEN) (29). […] To identify specifically which DUBs were inhibited by b-AP15 treatment, competitive labelling experiments were performed using hemagglutinin tagged ubiquitin vinylsulphonone (HA-UbVS), an active site directed probe that irreversibly reacts with DUBs of the cysteine class (26).
# For labelling of DUBs in cell lysates sub confluent cells were harvested by trypsinization, washed three times with PBS, and centrifuged at 1500 RPM for 5 min. Cell pellets were lysed with buffer (50 mM HEPES pH 7.4, 250 mM sucrose, 10 mM MgCl2, 2 mM ATP, 1 mM DTT) on ice for 15 min. Debris was removed by centrifugation and 25 μg of protein was labelled with 1 μM HA-UbVS for 30 min at 37° C. Samples were resolved by SDS-PAGE and analyzed by immunoblotting with indicated antibodies.
smiles,measurement,setting,value
C=CC(=O)N1C/C(=C\c2ccc([N+](=O)[O-])cc2)C(=O)/C(=C/c2ccc([N+](=O)[O-])cc2)C1 [b-AP15],levels of human CK18 derived from FaDu tumors in the circulation,"[1]; total CK18, p=0.01",significant increase
same,levels of caspase cleaved CK18 (CK18-Asp396) in circulation,[1]; compared with total levels,increased moderately
same,activity of non-proteasomal DUB USP5,USP5,without affecting the activity
